Usually Kd stands for a measure of binding affinity in units of concentration.

The structures appear in SMILES notation. *1 amine or outer side, *2 acyl side, *3 side chain or, on linkers, in order; H or OH if unused. Where a SMILES comes first, the peptide text is derived from it. The star is where a group is joined. X1 = O=C(CCCC[C@@H]1SC[C@@H]2NC(=O)N[C@@H]21)NCCCOCCOCCOCCCN*; Suc = O=C(CCC(=O)[*:2])[*:1]

Experiment [1] has as its target T1, MAGI2 PDZ 2 (Homo sapiens, UniProt Q86UL8).
T1 construct: made in house; host or cells: E. coli
Description: Holdup assay, MAGI2-2. The class given is binding. The following applies: for BI: MAGI2-2. As for the experimental part:
The holdup assay was performed on a Tecan freedom Evo200 robot with 384-well plates in singlicate for the three 11-mer PTEN variants and the 13-mer PTEN peptide as described in [31, 32]. Briefly, prior to interaction assay, 2.5 μL of streptavidin resin was saturated in each well with 20 μL of biotinylated PBM peptides (42 μM) and then washed twice with an excess of free biotin, while the reference resin was incubated only with biotin. Right before the holdup experiment, the PDZ library was spiked with an internal standard of lysozyme. Then, the biotin- or PBM-saturated resin was incubated, each in a distinct well of a 384-well plate, with complete cell lysates diluted so that the concentration of the tag-PDZ present in the crude extract is adjusted at 4 μM. After a sufficient time to reach complex equilibrium (15 min.), a fast and mild filtration step is performed and the tag-PDZ concentrations were measured by capillary electrophoresis instrument (LabChip GXII, PerkinElmer, Massachusets, USA). Standard markers were used to convert migration time into molecular weight on the LabChip software and inappropriate molecular weight markers were corrected or excluded.
For filtered data, the BI was extracted with the following equation (Eq 1) that estimates the depleted fraction after superimposition of the sample and reference electropherograms: BI=Iref−Ilig/Iref (1) where Iref and Ilig are the intensities of the tag-PDZ peaks measured, for each PDZ domain/PBM peptide interaction pair, in the biotin reference and the PBM electropherograms, respectively.
BIs were transformed into dissociation constants (KD) using the following formula: KD=([PDZtot]−BI·[PDZtot])·([PBMtot]−BI·[PDZtot])/BI·[PDZtot] (2) where [PDZtot] and [PBMtot] correspond to the total concentrations of the PDZ domain (usually around 4 μM) and the PBM peptide used during the assay. Since the PBMtot concentration in the resin during the holdup assay parameter may differ from one peptide to another and remains unknown, it is impossible to directly convert BI values into KD constants. We systematically determined the KD constants for a subset of PDZ/PBM pairs by competitive FP. […] For each PBM, the average peptide concentration was calculated after outlier rejection based on the absolute distances from the median as compared to three times the standard deviation (3σ rule), with never more than 2 values rejected.

For experiment [2], the system named is DLG3-3. Description: Holdup assay, DLG3-3. It is filed as binding, human.
The target in experiment [3] is LAP2-1 (Homo sapiens, UniProt Q96RT1). Description: Holdup assay, LAP2-1. It is filed as binding.
LAP2-1, sequence (Q96RT1 1321-1410): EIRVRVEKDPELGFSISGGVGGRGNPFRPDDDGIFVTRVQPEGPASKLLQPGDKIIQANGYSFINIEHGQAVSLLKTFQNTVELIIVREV
Experiment [4] deals with DLG5-4. Description: Holdup assay, DLG5-4. The class given is binding, human.
Experiment [5] relates to LIMK1-1. Description: Holdup assay, LIMK1-1. It is filed as binding, human.
Experiment [6] relates to HTRA2-1. Description: Holdup assay, HTRA2-1. The class given is binding, human.
The test system of experiment [7] is LNX2-1. Description: Holdup assay, LNX2-1. It is filed as binding, human.
For experiment [8], the system named is INADL-4. Description: Holdup assay, INADL-4. The class given is binding, human.
The subject of experiment [9] is LNX2-3. Description: Holdup assay, LNX2-3. It is filed as binding, human.
The test system of experiment [10] is human PDZome. Description: Promiscuity / specificity index from PDZome affinity profile (combined holdup and FP). Conditions: for Nb PDZ (BI): Val for BI=0.2; for 1/2PDZ: number of PDZ, 1/2PDZ Min and Max; for number of PDZ domains above the half-maximal binding affinity: relative to number of tested and validated PDZ domains; for Max Log(Kd): maximum over PDZome. The class given is binding. An excerpt: Using the mean concentration obtained above for each of the different PTEN peptides, the experimental BI values recorded by holdup for all tested domain/peptide pairs were subsequently transformed into equilibrium dissociation constants. […] Thereafter, affinity data measured by FP assay were also included in the […] for the PDZ domains (MAST1-1, MAST2-1, SNX27-1, MAGI1-2 and GRID2IP-2) for which holdup data were missing according to the low quality score in the filtering step. These interaction data detected only by competitive FP and not by holdup represented 1 to 2 additional PDZ binders per PTEN construct. […] This transformation into affinity values makes then possible to compare binding affinity profiles obtained for different peptides and potentially different batches.
The above described holdup-FP strategy delivers binding affinity constants, a universal chemical property. […] We then looked for a numerical parameter that would express, in a quantitative way, this specificity or promiscuity information. For this purpose, we calculated for each profile the difference between the maximal and the minimal significant affinity values detected by the assay, ΔGmax − ΔGmin. Next, we introduced a threshold affinity, called "half-maximal binding affinity" defined as follows: ΔGhalf = ΔGmin + (ΔGmax − ΔGmin)/2. […] Alternatively, the specificity index IS could be defined as 1 –IP. Therefore, the lower the promiscuity index, the higher the specificity index, the higher the specificity of the PBM for a limited number of selected domains across the PDZome.
We probed the specificity index on the PDZome-binding profiles of the four PTEN peptides. […] This would indicate, in qualitative terms, that the PTEN_13 peptide selects PDZ domains in a more specific -less promiscuous- way than that of the three of other peptides. […] One should note that it was not possible to determine index uncertainty by error propagation starting from holdup data, since BI values have been recorded in singlicate. However, the dispersion of log(KD) values around the perfect theoretical correlation line in the correlation plot (Fig 5B) is representative of global IS uncertainty, which was therefore estimated by averaging the distances between the experimental dots and the theoretical diagonal. Details about uncertainties and Fisher’s test calculations are provided in Supp. Materials and S1 File.
Uncertainty on IS was estimated according to several steps described below:
- Since it’s not possible strictly talking to propagate uncertainty for data recorded in singlicate, we considered that log(KD) uncertainty is contained in the correlation plot [log(KD,HU) vs. log(KD,FP)] when comparing the experimental data with the perfect theoretical correlation (the dotted diagonal line).
- Originally, we estimated the 1/2 PDZ index by counting the number of PDZ with a log(KD) value above the threshold calculated with the formulae developed in the manuscript. Then we did the same type of counting for [threshold value + log(KD) uncertainty] and for [threshold value - log(KD) uncertainty].
- From the difference in the two counts is estimated the index uncertainty.
Due to the low number of PDZ occurrences, a Fisher's exact test was preferred to estimate the p-value. Calculations were performed online with http://astatsa.com using default parameters.

The target in experiment [11] is T2, DFNB31-1 (Homo sapiens, UniProt Q9P202).
T2 sequence (Q9P202 140-223): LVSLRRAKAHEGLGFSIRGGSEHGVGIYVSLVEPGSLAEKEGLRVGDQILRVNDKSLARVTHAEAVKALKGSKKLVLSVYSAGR
Description: Holdup assay, DFNB31-1. The class given is binding.

T1 sequence (Q86UL8 426-510 limits assumed): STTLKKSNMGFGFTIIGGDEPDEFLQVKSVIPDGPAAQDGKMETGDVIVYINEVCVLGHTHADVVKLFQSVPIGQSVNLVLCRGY

Regarding `CC[C@H](C)[C@H](NC(=O)[C@H](CCC(N)=O)NC(=O)[C@@H](NC(=O)[C@H](Cc1c[nH]cn1)NC(=O)[C@H](CCC(N)=O)NC(=O)[C@H](CC(=O)O)NC(=O)[C@H](CCC(=O)O)NC(=O)[C@H](CC(=O)O)NC(=O)CCC(=O)NCCCOCCOCCOCCCNC(=O)CCCC[C@@H]1SC[C@@H]2NC(=O)N[C@@H]21)[C@@H](C)O)C(=O)N[C@H](C(=O)N[C@@H](CCCNC(=N)N)C(=O)N[C@H](C(=O)O)C(C)C)[C@@H](C)O` [PTEN_KR] ({X1-Suc}-DEDQHTQITRV-OH), the Kd in experiment [1] was 29.2 µM; in [3], 93.8 µM. In addition, the BI in [1] is given as 0.443; in experiment [2], 0.067; in experiment [3] it was 0.205; in [4], -0.107; in [5], -0.08; in experiment [6] it was -0.042. For the same compound, the BI in experiment [7] is reported as 0.072; in [8], -0.04; in experiment [9], 0.021; in [11] it was 0.118. The LogKD in [2], in experiment [4], in experiment [5], in [6], in [7] and in [8] was 3.655 throughout. Also, the LogKD in experiment [9] is recorded as 3.655. Further, in experiment [10], the “Nb PDZ (BI)” value was 38. In addition, in [10], the 1/2PDZ was found to be 9. Besides, the “number of PDZ domains above the half-maximal binding affinity” value (from here on “number”) in [10] turned out to be 9.
For `CC[C@H](C)[C@H](NC(=O)[C@H](CCC(N)=O)NC(=O)[C@@H](NC(=O)[C@H](Cc1c[nH]cn1)NC(=O)[C@H](CCC(N)=O)NC(=O)[C@H](CC(=O)O)NC(=O)[C@H](CCC(=O)O)NC(=O)[C@H](CC(=O)O)NC(=O)[C@H](Cc1ccccc1)NC(=O)[C@@H]1CCCN1C(=O)CCC(=O)NCCCOCCOCCOCCCNC(=O)CCCC[C@@H]1SC[C@@H]2NC(=O)N[C@@H]21)[C@@H](C)O)C(=O)N[C@H](C(=O)N[C@@H](CCCCN)C(=O)N[C@H](C(=O)O)C(C)C)[C@@H](C)O` [PTEN_13] ({X1-Suc}-PFDEDQHTQITKV-OH), the BI in experiment [1] is on record as 0.082; in experiment [2], -0.054; in experiment [3], 0.172; in [4] it was -0.028; in experiment [5], -0.103; in [6], -0.097. The BI in experiment [7] was -0.046; in experiment [8], -0.084; in experiment [9], -0.083; in experiment [11] it was 0.145. The “Nb PDZ (BI)” value in [10] is given as 25. In addition, the “specificity (in words)” value in experiment [10] (compared with the three 11-mer peptides) is given as “slight increased specificity”. Besides, the “Max Log(Kd)” value in [10] was determined as 5.89. In addition, the 1/2PDZ in experiment [10] turned out to be 4. Besides, in experiment [10], the “number” value was 4.
For the compound `CC[C@H](C)[C@H](NC(=O)[C@H](CCC(N)=O)NC(=O)[C@@H](NC(=O)[C@H](Cc1c[nH]cn1)NC(=O)[C@H](CCC(N)=O)NC(=O)[C@H](CC(=O)O)NC(=O)[C@H](CCC(=O)O)NC(=O)[C@H](CC(=O)O)NC(=O)CCC(=O)NCCCOCCOCCOCCCNC(=O)CCCC[C@@H]1SC[C@@H]2NC(=O)N[C@@H]21)[C@@H](C)O)C(=O)N[C@H](C(=O)N[C@@H](CCCCN)C(=O)N[C@H](C(=O)O)C(C)C)[C@@H](C)O` [PTEN_11], the BI in [1] is 0.18; in experiment [2], -0.011; in [3], 0.305; in experiment [4], -0.07; in experiment [5], -0.066; in experiment [6], 0.07. Also, the BI was 0.094 in experiment [7], -0.049 in [8], -0.164 in experiment [9] and 0.108 in experiment [11]. Also, the LogKD in [2], in experiment [4], in experiment [5], in experiment [6], in [7] and in experiment [8] was 3.519 throughout. Besides, the LogKD in experiment [9] is listed as 3.519. This compound also gave a Kd in experiment [3] of 74.7 µM. Further, the “Nb PDZ (BI)” value in experiment [10] was determined as 19. In addition, in experiment [10], the “Max Log(Kd)” value worked out at 4.90. Besides, in [10], the 1/2PDZ was 9. Also, in experiment [10], the “number” value was determined as 9.
Turning to `CC[C@H](C)[C@H](NC(=O)[C@H](CCC(N)=O)NC(=O)[C@@H](NC(=O)[C@H](Cc1c[nH]cn1)NC(=O)[C@H](CCC(N)=O)NC(=O)[C@H](CC(=O)O)NC(=O)[C@H](CCC(=O)O)NC(=O)[C@H](CC(=O)O)NC(=O)CCC(=O)NCCCOCCOCCOCCCNC(=O)CCCC[C@@H]1SC[C@@H]2NC(=O)N[C@@H]21)[C@@H](C)O)C(=O)N[C@H](C(=O)N[C@@H](CCCCNC(C)=O)C(=O)N[C@H](C(=O)O)C(C)C)[C@@H](C)O` [PTEN_Ac], the Kd is 55.5 µM in experiment [1] and 99.7 µM in [3]. In addition, the BI in experiment [1] is 0.325; in experiment [2] it was -0.04; in experiment [3], 0.214; in [4], -0.1; in experiment [5], -0.047; in [6], -0.074. Moreover, the values for the BI in [7], in experiment [8] and in [11] were 0, -0.106 and 0.09, respectively. For the same compound, the LogKD in experiment [2], in [4], in [5], in experiment [6], in experiment [7] and in [8] was 3.605 in each case. The compound also showed a LogKD in [11] of 3.605. The “Nb PDZ (BI)” value in experiment [10] came to 43. In addition, the 1/2PDZ in experiment [10] is on record as 12. The “number” value in [10] is listed as 12.

Values taken from article PMC7774954, “Interactomic affinity profiling by holdup assay: Acetylation and distal residues impact the PDZome-binding specificity of PTEN phosphatase” (PLoS ONE, 2020).
